Test results: patent US5278052A, “Process for the simultaneous production of benanomicins A and B” (Zaidan Hojin Biseibutsu Kagaku Kenkyu Kai, priority 1987, dated 1994)
Converted amounts (≈) assume the structure as drawn. Counter-ions that a name gives are not always drawn. Like-named read-outs stand apart in the source and are kept apart here.

Assays:
[1] = system: Pseudomonas aeruginosa A3; experiment: MIC by standard serial dilution method (bacteria)
Candida tropicalis F-1 = experiment: MIC by standard serial dilution method (fungi); format: cell-based; conditions: F1, dexylosylbenanomicin B as hydrochloride
Candida krusei F-5 = experiment: MIC by standard serial dilution method (fungi); format: cell-based; conditions: Pichia kudriavzevii, F5, dexylosylbenanomicin B as hydrochloride
[2] = system: Cryptococcus neoformans F-10; experiment: MIC by standard serial dilution method (fungi); format: cell-based
various kinds of fungi = experiment: antifungal activity, summary of Table 2; format: cell-based; conditions: as revealed from Table 2
From the text: 4. Antibacterial and antifungal activities of benanomicin A, benanomicin B and dexylosylbenanomicn B (as the hydrochloride) are described below.

Cochliobolus miyabeanus = experiment: MIC by standard serial dilution method (fungi); format: cell-based; conditions: Bipolaris oryzae
[3] = system: Staphylococcus aureus Smith; experiment: MIC by standard serial dilution method (bacteria)
Proteus vulgaris OX19 = experiment: MIC by standard serial dilution method (bacteria)
Candida albicans = experiment: therapeutic effect on experimental Candida infection in mice; conditions: 3 times (0, 6, 24 h)
Salmonella typhi T-63 = experiment: MIC by standard serial dilution method (bacteria); conditions: Salmonella enterica
[4] = system: Trichophyton mentagrophytes (883); experiment: MIC by standard serial dilution method (fungi); format: cell-based; conditions: dexylosylbenanomicin B as hydrochloride
Escherichia coli K-12 = experiment: MIC by standard serial dilution method (bacteria); conditions: K12
[5] = system: Saccharomyces cerevisiae F-7; experiment: MIC by standard serial dilution method (fungi); format: cell-based; conditions: F7, dexylosylbenanomicin B as hydrochloride
Pellicularia sasakii = experiment: MIC by standard serial dilution method (fungi); format: cell-based; conditions: dexylosylbenanomicin B as hydrochloride
Jcl:ICR-strain mice = conditions: mouse, in vivo, iv, 600 mg/kg
[6] = system: Staphylococcus aureus FDA209P; experiment: MIC by standard serial dilution method (bacteria)
[7] = system: Klebsiella pneumoniae PCI602; experiment: MIC by standard serial dilution method (bacteria)
Escherichia coli NIHJ = experiment: MIC by standard serial dilution method (bacteria)
Xanthomonas citri = experiment: MIC by standard serial dilution method; format: cell-based
Micrococcus luteus FDA16 = experiment: MIC by standard serial dilution method (bacteria)
in vivo = conditions: mouse, iv
[8] = system: Shigella dysenteriae JS11910; experiment: MIC by standard serial dilution method (bacteria)
Aspergillus niger = experiment: MIC by standard serial dilution method (fungi); format: cell-based; conditions: dexylosylbenanomicin B as hydrochloride
[9] = system: Candida pseudotropicalis F-2; experiment: MIC by standard serial dilution method (fungi); format: cell-based; conditions: Kluyveromyces marxianus, F2
Candida Yu-1200 = experiment: MIC by standard serial dilution method (fungi); format: cell-based; conditions: YU1200, dexylosylbenanomicin B as hydrochloride
Bacillus subtilis PCI219 = experiment: MIC by standard serial dilution method (bacteria)
[10] = system: Mycobacterium smegmatis ATCC607; experiment: MIC by standard serial dilution method (bacteria); conditions: Mycolicibacterium smegmatis
[11] = system: Corynebacterium bovis 1810; experiment: MIC by standard serial dilution method (bacteria)
Xanthomonas oryzae = experiment: microbe, parasite or virus in culture; format: cell-based
Candida albicans 3147 = experiment: MIC by standard serial dilution method (fungi); format: cell-based; conditions: dexylosylbenanomicin B as hydrochloride
Pyricularia oryzae = experiment: microbe, parasite or virus in culture; format: cell-based
[12] = system: Trichophyton asteroides 429; experiment: MIC by standard serial dilution method (fungi); format: cell-based; conditions: dexylosylbenanomicin B as hydrochloride
[13] = Distinction between the basic, acidic and neutral natures of substance; format: physicochemical
[14] = Candida pseudotropicalis F-2, dexylosylbenanomicin B as hydrochloride, read-out: MIC

COc1cc(O)c2c(c1)C(=O)c1c(cc3c(c1O)-c1c(cc(C)c(C(=O)N[C@H](C)C(=O)O)c1O)C(O[C@@H]1O[C@H](C)[C@H](O)[C@H](O[C@@H]4OC[C@@H](O)[C@H](O)[C@H]4O)[C@H]1O)C3O)C2=O (stereo partly shown) [Benanomicin A]
MIC [1]: > 50 µg/mL | MIC (Candida tropicalis F-1): 25 µg/mL (≈ 30.2 µM) | MIC (Candida krusei F-5): 6.25 µg/mL (≈ 7.55 µM) | MIC ([2]; F10, read-out: MIC): 3.12 µg/mL (≈ 3.77 µM) | antifungal activities against various kinds of fungi (various kinds of fungi): substantial antifungal activities | MIC (Cochliobolus miyabeanus): > 100 µg/mL | MIC [3]: > 100 µg/mL | MIC (Proteus vulgaris OX19): > 100 µg/mL | Number of surviving mice (Candida albicans; 0.2 mg/mouse, subcutaneous): 0/5 | Percent of the number of surviving mice against the tested mice (Candida albicans; 0.2 mg/mouse, subcutaneous): 0% | Number of surviving mice (Candida albicans; 0.3 mg/mouse, subcutaneous): 2/5 | Percent of the number of surviving mice against the tested mice (Candida albicans; 0.3 mg/mouse, subcutaneous): 40% | Number of surviving mice (Candida albicans; 0.4 mg/mouse, subcutaneous): 1/5 | Percent of the number of surviving mice against the tested mice (Candida albicans; 0.4 mg/mouse, subcutaneous): 20% | Number of surviving mice (Candida albicans; 0.8 mg/mouse, subcutaneous): 5/5 | Percent of the number of surviving mice against the tested mice (Candida albicans; 0.8 mg/mouse, subcutaneous): 100% | Number of surviving mice (Candida albicans; 1.5 mg/mouse, oral): 0/5 | Percent of the number of surviving mice against the tested mice (Candida albicans; 1.5 mg/mouse, oral): 0% | Number of surviving mice (Candida albicans; 3.0 mg/mouse, oral): 0/5 | Percent of the number of surviving mice against the tested mice (Candida albicans; 3.0 mg/mouse, oral): 0% | Number of surviving mice (Candida albicans; 6.0 mg/mouse, oral): 3/5 | Percent of the number of surviving mice against the tested mice (Candida albicans; 6.0 mg/mouse, oral): 60% | Number of surviving mice (Candida albicans; 12.0 mg/mouse, oral): 3/5 | Percent of the number of surviving mice against the tested mice (Candida albicans; 12.0 mg/mouse, oral): 60% | MIC (Salmonella typhi T-63): > 100 µg/mL | MIC [4]: 50 µg/mL (≈ 60.4 µM) | MIC (Escherichia coli K-12): > 100 µg/mL | MIC [5]: 6.25 µg/mL (≈ 7.55 µM) | MIC (Pellicularia sasakii): 25 µg/mL (≈ 30.2 µM) | mice killed (Jcl:ICR-strain mice): none of the mice was killed | MIC [6]: 100 µg/mL (≈ 121 µM) | MIC [7]: > 100 µg/mL | MIC (Escherichia coli NIHJ): > 100 µg/mL | MIC (Xanthomonas citri): > 100 µg/mL | MIC (Micrococcus luteus FDA16): 12.5 µg/mL (≈ 15.1 µM) | MTD (in vivo): 600 mg/kg | MIC [8]: > 50 µg/mL | MIC (Aspergillus niger): 50 µg/mL (≈ 60.4 µM) | MIC [9, 14]: 6.25 µg/mL (≈ 7.55 µM) | MIC (Candida Yu-1200): 12.5 µg/mL (≈ 15.1 µM) | MIC (Bacillus subtilis PCI219): > 100 µg/mL | MIC [10]: > 100 µg/mL | MIC [11]: 12.5 µg/mL (≈ 15.1 µM) | MIC (Xanthomonas oryzae): > 100 µg/mL | MIC (Candida albicans 3147): 25 µg/mL (≈ 30.2 µM) | MIC (Pyricularia oryzae): 25 µg/mL (≈ 30.2 µM) | Solubility (Solubility; acetone): Only sparingly soluble | Solubility (Solubility; alkaline water): soluble | Solubility (Solubility; chloroform): Only sparingly soluble | Solubility (Solubility; dimethylformamide): soluble | Solubility (Solubility; dimethylsulfoxide): soluble | Solubility (Solubility; ethyl acetate): Only sparingly soluble | Solubility (Solubility; methanol): Only sparingly soluble | Solubility (Solubility; water): insoluble | MIC [12]: 50 µg/mL (≈ 60.4 µM) | Distinction between the basic, acidic and neutral natures of substance [13]: Acidic substance

COc1cc(O)c2c(c1)C(=O)c1c(cc3c(c1O)-c1c(cc(C)c(C(=O)N[C@H](C)C(=O)O)c1O)[C@H](O[C@@H]1O[C@H](C)[C@H](N)[C@H](O[C@@H]4OC[C@@H](O)[C@H](O)[C@H]4O)[C@H]1O)[C@H]3O)C2=O [Benanomicin B hydrochloride]
Solubility (Solubility; acetone): Only sparingly soluble | Solubility (Solubility; chloroform): Only sparingly soluble | Solubility (Solubility; dimethylformamide): soluble | Solubility (Solubility; dimethylsulfoxide): soluble | Solubility (Solubility; ethyl acetate): Only sparingly soluble | Solubility (Solubility; methanol): soluble | Solubility (Solubility; water): soluble | Distinction between the basic, acidic and neutral natures of substance [13]: Amphoteric substance

COc1cc(O)c2c(c1)C(=O)c1c(cc3c(c1O)-c1c(cc(C)c(C(=O)N[C@H](C)C(=O)O)c1O)C(O[C@@H]1O[C@H](C)[C@H](N)[C@H](O[C@@H]4OC[C@@H](O)[C@H](O)[C@H]4O)[C@H]1O)C3O)C2=O (stereo partly shown) [Benanomicin B]
MIC [1]: > 100 µg/mL | MIC (Candida tropicalis F-1): > 100 µg/mL | MIC (Candida krusei F-5): 6.25 µg/mL (≈ 7.56 µM) | MIC ([2]; F10, read-out: MIC): 1.56 µg/mL (≈ 1.89 µM) | antifungal activities against various kinds of fungi (various kinds of fungi): substantial antifungal activities | MIC (Cochliobolus miyabeanus): > 100 µg/mL | MIC [3]: > 100 µg/mL | MIC (Proteus vulgaris OX19): > 100 µg/mL | MIC (Salmonella typhi T-63): > 100 µg/mL | MIC [4]: 25 µg/mL (≈ 30.2 µM) | MIC (Escherichia coli K-12): > 100 µg/mL | MIC [5]: 12.5 µg/mL (≈ 15.1 µM) | MIC (Pellicularia sasakii): 50 µg/mL (≈ 60.5 µM) | MIC [6]: > 100 µg/mL | MIC [7]: > 100 µg/mL | MIC (Escherichia coli NIHJ): > 100 µg/mL | MIC (Xanthomonas citri): > 100 µg/mL | MIC (Micrococcus luteus FDA16): 3.12 µg/mL (≈ 3.77 µM) | MTD (in vivo): 100 mg/kg | MIC [8]: > 100 µg/mL | MIC (Aspergillus niger): > 100 µg/mL | MIC [9, 14]: 6.25 µg/mL (≈ 7.56 µM) | MIC (Candida Yu-1200): 12.5 µg/mL (≈ 15.1 µM) | MIC (Bacillus subtilis PCI219): > 100 µg/mL | MIC [10]: > 100 µg/mL | MIC [11]: 3.12 µg/mL (≈ 3.77 µM) | MIC (Xanthomonas oryzae): > 100 µg/mL | MIC (Candida albicans 3147): 25 µg/mL (≈ 30.2 µM) | MIC (Pyricularia oryzae): 50 µg/mL (≈ 60.5 µM) | MIC [12]: 25 µg/mL (≈ 30.2 µM)

COc1cc(O)c2c(c1)C(=O)c1c(cc3c(c1O)-c1c(cc(C)c(C(=O)N[C@H](C)C(=O)O)c1O)C(O[C@@H]1O[C@H](C)[C@H](N)[C@H](O)[C@H]1O)C3O)C2=O (stereo partly shown) [Dexylosylbenanomicin B hydrochloride]
Distinction between the basic, acidic and neutral natures of substance [13]: Amphoteric substance

COc1cc(O)c2c(c1)C(=O)c1c(cc3c(c1O)-c1c(cc(C)c(C(=O)N[C@H](C)C(=O)O)c1O)C(O[C@@H]1O[C@H](C)[C@H](N)[C@H](O)[C@H]1O)C3O)C2=O (stereo partly shown) [Dexylosylbenanomicin B]
MIC (Candida tropicalis F-1): 6.25 µg/mL (≈ 9 µM) | MIC (Candida krusei F-5): 12.5 µg/mL (≈ 18 µM) | MIC ([2]; F10): 3.13 µg/mL (≈ 4.51 µM) | antifungal activities against various kinds of fungi (various kinds of fungi): substantial antifungal activities | MIC (Cochliobolus miyabeanus): 50 µg/mL (≈ 72 µM) | MIC [4]: 50 µg/mL (≈ 72 µM) | MIC [5]: 6.25 µg/mL (≈ 9 µM) | MIC (Pellicularia sasakii): 25 µg/mL (≈ 36 µM) | MIC (Xanthomonas citri): 100 µg/mL (≈ 144 µM) | MTD (in vivo): 100 mg/kg | MIC (Aspergillus niger): 25 µg/mL (≈ 36 µM) | MIC [9]: 3.13 µg/mL (≈ 4.51 µM) | MIC (Candida Yu-1200): 6.25 µg/mL (≈ 9 µM) | MIC (Xanthomonas oryzae): 100 µg/mL (≈ 144 µM) | MIC (Candida albicans 3147): 6.25 µg/mL (≈ 9 µM) | MIC (Pyricularia oryzae): 25 µg/mL (≈ 36 µM) | MIC [12]: 50 µg/mL (≈ 72 µM)
